Source: US10660578B2, “Combining electronic monitoring with inhaled pharmacological therapy to manage cardiac arrhythmias including atrial fibrillation” (InCarda Therapeutics, Inc., priority 2016, dated 2020)

Legend:
[1] = test system: atrial fibrillation; assay: Administration of diltiazem by inhalation in atrial fibrillation; assay type: in vivo
Excerpt: Inhalation avoids the initial dilution of drug in the body as compared to intravenous or oral dosing. Inhalation also avoids first-pass metabolism, such as hepatic metabolism. For instance, calcium channel blockers, such as diltiazem, undergo significant hepatic metabolism when taken orally. Inhalation allows rapid delivery of the parent diltiazem compound to the heart as a bolus. […] Thus, administration by inhalation of diltiazem is useful for treating both atrial fibrillation and supraventricular tachycardia (SVT). In contrast, administration by IV of diltiazem is typically only used for converting SVT to normal sinus rhythm and in atrial fibrillation to reduce heart rate (not for converting to normal sinus rhythm). Inhalation also avoids red blood cell metabolism. For instance, the reduced dilution and short route associated with inhalation reduces red blood cell metabolism of esmolol. Inhalation may also avoid reduced blood pressure and fainting. For instance, IV administration of beta blockers, such as esmolol, and/or Class I antiarrhythmics such as flecainide, may reduce mean arterial blood pressure (MAP). Inhalation can allow rapid delivery of esmolol and/or flecainide without reducing MAP. […]

[2] = test system: animal displaying atrial fibrillation; assay: Treatment of atrial fibrillation by intra-tracheal flecainide, monitored by smartphone ECG and Prucka System; assay type: in vivo; conditions: intra-tracheal administration of 0.75 mg/kg; animal in atrial fibrillation
Description: An exemplary smart phone app was installed on a smartphone in order to monitor the efficacy of FA at ceasing incidence of atrial fibrillation. The smartphone app allowed for communication between the smart phone and an electronic monitoring chip used to produce an ECG.
The smart phone device was then used to monitor the treatment efficacy of an intra-tracheal administration of 0.75 mg/kg flecainide in treating atrial fibrillation. FIG. 9 depicts an exemplary ECG produced from a smartphone as compared to a Prucka System in an animal displaying atrial fibrillation. Again, the traces show excellent correlation between the two devices.

[3] = test system: PAF; conditions: cited from earlier work
[4] = Assessment of different inhalers with flecainide acetate (FA) solution at 30 mg/ml; assay type: physicochemical
Description: Different inhalers were then tested to assess compatibility of material to the different materials of construction and different types of inhalers (Table 2).
The Trek S from PARI was able to deliver the same dose in about 3 minutes.

Row | Time to deliver a 30-40 mg dose ([4]; Pari e-rapid or Lumiscope inhalers, 30-40 mg dose) | Time to deliver a 30-40 mg dose ([4]; Trek S from PARI, same 30-40 mg dose) | Compound | Effect on atrial fibrillation rhythm [1] | Effect on heart rate [1] | Effect on atrial fibrillation (ECG rhythm) [2] | Average time to terminate the PAF ([3]; oral bolus of 300 mg (max per day) at one time) [min] | Effectiveness of oral flecainide ([3]; oral)
1 | – | – | COc1ccc([C@@H]2Sc3ccccc3N(CCN(C)C)C(=O)[C@@H]2OC(C)=O)cc1 [diltiazem] | converted atrial fibrillation to normal sinus rhythm | reduced heart rate | – | – | –
2 | less than 2 minutes | about 3 minutes | O=C(NCC1CCCCN1)c1cc(OCC(F)(F)F)ccc1OCC(F)(F)F (stereo not shown) [flecainide] | – | – | return to sinus rhythm | 100 | 30-50%
